Here are results for 63 molecules from the supplement of paper PMC3974653.

Where a name gives a salt, the structure may show the parent alone. Where only a bound is given, the exact number is not on record here.

The experiment has as its system MTT (mouse pheochromocytoma). As to the kind of experiment: IC50 of cell viability (ATP content). The following applies: (24 or 48 h). In outline:
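CellTiter-Glo ATP luminescence, read after 15 minutes, was used to assess MTT mouse pheochromocytoma cells treated for 24 or 48 hrs with library compounds (final 0.5 nM to 46 µM, 8 concentrations). The cells had been plated at 5 µl of 200,000 cells/ml per well in white 1536-well plates in DMEM with 5% FBS and 1% horse serum and cultured overnight at 37°C, 5% CO2. Normalisation set positive-control wells to 100% and DMSO wells to 0%. The IC50 was then determined by four-parameter logistic fitting.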

Take `[Na+].CO[C@@]1(NC(=O)CSCC#N)[C@@H]2SC\C(=C(/N2C1=O)C([O-])=O)CSC3=NN=N[N]3C` [Cefmetazole sodium salt]: the “IC50 of cell viability” value is more than 46 µM. As to `NCC1=C(CC(=O)N[C@H]2[C@@H]3SC\C(=C(/N3C2=O)C(O)=O)CSC4=NN=N[N]4CC(O)=O)C=CC=C1` [Ceforanide], the “IC50 of cell viability” value is more than 46 µM. For `CO/N=C(\C(=O)N[C@@H]1C(=O)N2C(C(=O)[O-])=C(COC(C)=O)CS[C@@H]12)c1csc(N)n1.[Na+]` [Cefotaxime sodium salt], the “IC50 of cell viability” value is more than 46 µM. Under `CO[C@@]1(NC(=O)[C@@H]2S\C(S2)=C(\C(N)=O)C(O)=O)[C@@H]3SC\C(=C(/N3C1=O)C(O)=O)CSC4=NN=N[N]4C` (stereo partly drawn) [Cefotetan] stands more than 46 µM; under `CN(C)CC[N]1N=NN=C1SC\C2=C(\[N@]3[C@@H](SC2)[C@H](NC(=O)CC4=CSC(=N4)N)C3=O)C(O)=O` [Cefotiam hydrochloride], more than 46 µM.

In the case of `CO[C@@]1(NC(=O)Cc2cccs2)C(=O)N2C(C(=O)O)=C(COC(N)=O)CS[C@@H]21` [Cefoxitin sodium salt], the “IC50 of cell viability” value was more than 46 µM. For the molecule `COCC1=C(C(=O)OC(C)OC(=O)OC(C)C)N2C(=O)C(NC(=O)/C(=N\OC)c3csc(N)n3)C2SC1` (stereo not drawn) [Cefpodoxime proxetil], the “IC50 of cell viability” value was more than 46 µM. Regarding `COC/1=C(/N2[C@H](SC1)[C@H](NC(=O)C(N)C/3\C=C/C/C=C3)C2=O)C(O)=O` (stereo partly drawn) [Cefradoxil], the “IC50 of cell viability” value is more than 46 µM.

Take `[Na+].NC(=O)C1=CC=[N+](C\C2=C(\[N@]3[C@@H](SC2)[C@H](NC(=O)[C@H](C4=CC=CC=C4)[S]([O-])(=O)=O)C3=O)C([O-])=O)C=C1` [Cefsulodin sodium salt]: the “IC50 of cell viability” value was more than 46 µM. In the case of `CC(C)(O/N=C(\C(=O)N[C@@H]1C(=O)N2C(C(=O)[O-])=C(C[n+]3ccccc3)CS[C@@H]12)c1csc(N)n1)C(=O)O.O.O.O.O.O` [Ceftazidime pentahydrate], the “IC50 of cell viability” value was more than 46 µM. Turning to `O=C(Cn1cnnn1)N[C@@H]1C(=O)N2C(C(=O)O)=C(CSc3nncs3)CS[C@H]12` [Ceftezole sodium], the “IC50 of cell viability” value was more than 46 µM. On to `CO/N=C(/C(=O)N[C@@H]1C(=O)N2C(C(=O)O)=C(COC(N)=O)CS[C@H]12)c1ccco1` [Cefuroxime Free Acid], for which the “IC50 of cell viability” value was more than 46 µM. Regarding `Cc1ccc(-c2cc(C(F)(F)F)nn2-c2ccc([S+](N)(=O)[O-])cc2)cc1` [Celecoxib], the “IC50 of cell viability” value is more than 46 µM. As for `CC(=O)OC[C@H]1O[C@@H](O[C@H]2[C@H](O)[C@@H](OC(=O)c3ccccc3C(=O)O)[C@H](O)O[C@@H]2COC(C)=O)[C@H](O)[C@@H](OC(=O)c2ccccc2C(=O)O)[C@@H]1O` [Cellulose Acetate Phthalate], the “IC50 of cell viability” value was more than 46 µM. On to `CC(=O)OC\C1=C(\[N@]2[C@@H](SC1)[C@H](N)C2=O)C(O)=O` [Cephalosporanic acid, 7-amino], for which the “IC50 of cell viability” value was more than 46 µM. Consider `[Na+].CC(=O)OC\C1=C(\[N@]2[C@@H](SC1)[C@H](NC(=O)CSC3=CC=NC=C3)C2=O)C([O-])=O` [Cephapirin sodium salt], for which the “IC50 of cell viability” value was more than 46 µM.

With `CC1=C(C(=O)O)N2C(=O)[C@@H](NC(=O)[C@H](N)C3=CCC=CC3)[C@H]2SC1` [Cephradine], the “IC50 of cell viability” value is more than 46 µM. Take `CNC1(c2ccccc2Cl)CCCCC1=O` (stereo not drawn) [Cetamina]: the “IC50 of cell viability” value is more than 46 µM. Take `O=C(O)COCCN1CCN([C@@H](c2ccccc2)c2ccc(Cl)cc2)CC1` [Cetirizine dihydrochloride]: the “IC50 of cell viability” value is more than 46 µM. The result for `[H]C1(CN)CC[C@@]([H])(CC1)C(=O)OC2=CC=C(CCC(O)=O)C=C2` (stereo not drawn) [Cetraxate hydrochloride] reads more than 46 µM. Consider `C[C@H](CCC(=O)O)[C@@H]1CC[C@H]2[C@@H]3[C@@H](CC[C@@]21C)[C@@]1(C)CC[C@H](O)C[C@@H]1C[C@@H]3O` [Chenodiol], for which the “IC50 of cell viability” value was more than 46 µM. For the molecule `Cc1ccc(S(=O)(=O)[N-]Cl)cc1.O.O.O.[Na+]` [Chloramine T trihydrate], the “IC50 of cell viability” value is more than 46 µM.

With `CCCCCCCCCCCCCCCC(=O)OCC(NC(=O)C(Cl)Cl)C(O)c1ccc([N+](=O)[O-])cc1` (stereo not drawn) [Chloramphenicol palmitate], the “IC50 of cell viability” value is more than 46 µM.

`O=C(O)CCC(=O)OC[C@@H](NC(=O)C(Cl)Cl)[C@H](O)c1ccc([N+](=O)[O-])cc1` [Chloramphenicol succinate sodium salt]: the “IC50 of cell viability” value was more than 46 µM.

As to `O=C(N[C@H](CO)[C@H](O)c1ccc([N+](=O)[O-])cc1)C(Cl)Cl` [Chloramphenicol], the “IC50 of cell viability” value is more than 46 µM.

In the case of `N=C(NCCCCCCNC(=N)NC(=N)Nc1ccc(Cl)cc1)NC(=N)Nc1ccc(Cl)cc1` [Chlorhexidine], the “IC50 of cell viability” value is more than 46 µM. Regarding `Oc1ccc(Cl)c2c1CCC2` [Chlorindanol], the “IC50 of cell viability” value is more than 46 µM. Regarding `CC(=O)[C@@]1(O)CC[C@H]2[C@@H]3C=C(Cl)C4=CC(=O)CC[C@]4(C)[C@H]3CC[C@@]21C` [Chlormadinone], the “IC50 of cell viability” value was more than 46 µM. Take `CN1C(=O)CC[S+](=O)([O-])C1c1ccc(Cl)cc1` (stereo not drawn) [Chlormezanone]: the “IC50 of cell viability” value is more than 46 µM. On to `ClC(Cl)Cl` [Chloroform], for which the “IC50 of cell viability” value is more than 46 µM. Turning to `CN(C)CCN(Cc1ccc(Cl)cc1)c1ccccn1` [Chloropyramine hydrochloride], the “IC50 of cell viability” value is more than 46 µM. With `N[S+]([O-])(=O)C1=C(Cl)C=C2\N=C/N[S+]([O-])(=O)C2=C1` [Chlorothiazide], the “IC50 of cell viability” value is more than 46 µM. For `COc1ccc(C(Cl)=C(c2ccc(OC)cc2)c2ccc(OC)cc2)cc1` [Chlorotrianisene], the “IC50 of cell viability” value is more than 46 µM. With `Cc1cc(O)cc(C)c1Cl` [Chloroxylenol], the “IC50 of cell viability” value is more than 46 µM. For the molecule `NC(=O)OC[C@H](O)COc1ccc(Cl)cc1` [Chlorphensin carbamate], the “IC50 of cell viability” value was more than 46 µM. Consider `CC(C)(N)Cc1ccc(Cl)cc1` [Chlorphentermine hydrochloride], for which the “IC50 of cell viability” value was more than 46 µM.

Consider `CCCNC(=O)N[S+](=O)([O-])c1ccc(Cl)cc1` [Chlorpropamide], for which the “IC50 of cell viability” value was more than 46 µM.

Take `CN(C)CC/C=C1\c2ccccc2Sc2ccc(Cl)cc21` [Chlorprothixene]: the “IC50 of cell viability” value was more than 46 µM. With `CN(C)[C@H]\1[C@@H]2C[C@H]3\C(=C(\O)[C@@]2(O)C(=O)\C(=C1O)C(N)=O)C(=O)C4=C(O)C=CC(=C4[C@]3(C)O)Cl` [Chlortetracycline hydrochloride], the “IC50 of cell viability” value is more than 46 µM. As for `COC(=O)c1c(Cl)c(Cl)c(C(=O)OC)c(Cl)c1Cl` [Chlorthal-dimethyl], the “IC50 of cell viability” value is more than 46 µM. As for `N[S+](=O)([O-])c1cc([C@]2(O)NC(=O)c3ccccc32)ccc1Cl` [Chlorthalidone], the “IC50 of cell viability” value is more than 46 µM. Regarding `C[C@H](CCC(=O)O)[C@H]1CC[C@@H]2[C@H]3[C@@H](C[C@@H](O)[C@]21C)[C@]1(C)CC[C@H](O)C[C@@H]1C[C@@H]3O` [Cholic Acid], the “IC50 of cell viability” value was more than 46 µM. For the molecule `CC(=O)[O-].C[N+](C)(C)CCO` [Cholin acetate], the “IC50 of cell viability” value is more than 46 µM.

`C[N+](C)(C)CCO` [Choline bromide]: the “IC50 of cell viability” value was more than 46 µM.

Regarding `CCOC(=O)COc1ccc2c(C)c(CC[NH+](CC)CC)c(=O)oc2c1` [Chromonar hydrochloride], the “IC50 of cell viability” value is more than 46 µM.

As for `Cc1cc(O)c2c(O)c3c(O)cccc3cc2c1` [Chrysarobin], the “IC50 of cell viability” value is more than 46 µM. In the case of `N#CCC(=O)NN` [Ciacetacida], the “IC50 of cell viability” value is more than 46 µM.

For the molecule `c1ccc(C2(c3ccccc3)CC2C2=NCCN2)cc1` (stereo not drawn) [Cibenzoline succinate], the “IC50 of cell viability” value is more than 46 µM. On to `COc1cc(/C=C2\CCC/C(=C\c3ccc(O)c(OC)c3)C2=O)ccc1O` [Ciclovalona], for which the “IC50 of cell viability” value was more than 46 µM. As for `CC1(COc2ccc(CC3SC(=O)NC3=O)cc2)CCCCC1` (stereo not drawn) [Ciglitizone], the “IC50 of cell viability” value is more than 46 µM. `CCOC(=O)[C@H](CCc1ccccc1)N[C@H]1CCCN2CCC[C@@H](C(=O)O)N2C1=O` [Cilazapril]: the “IC50 of cell viability” value was more than 46 µM.

As for `COCCOC(=O)C1=C(C)NC(C)=C(C(=O)OC/C=C/c2ccccc2)C1c1cccc([N+](=O)[O-])c1` (stereo not drawn) [Cilnidipine], the “IC50 of cell viability” value is more than 46 µM. `CN(C1CCCCC1)C(=O)CCCOC2=CC\3=C(NC(=O)\C=C3)C=C2` [Cilostamide]: the “IC50 of cell viability” value was more than 46 µM.

As to `O=C(/C=C/c1cccc(F)c1)NC1CC1` [Cinflumide], the “IC50 of cell viability” value was more than 46 µM. For the molecule `OC/C=C/c1ccccc1` [Cinnamyl alcohol], the “IC50 of cell viability” value was more than 46 µM.

`C(=C/c1ccccc1)/CN1CCN(C(c2ccccc2)c2ccccc2)CC1` [Cinnarizine]: the “IC50 of cell viability” value is more than 46 µM.

With `CCN1\N=C(\C(O)=O)C(=O)C2=C1C=C3OCOC3=C2` [Cinoxacin], the “IC50 of cell viability” value is more than 46 µM. The result for `CC(C)(Oc1ccc(C2CC2(Cl)Cl)cc1)C(=O)O` (stereo not drawn) [Ciprofibrate] reads more than 46 µM. `OC(=O)\C1=C\N(C2CC2)C3=CC(=C(F)C=C3C1=O)N4CCNCC4` [Ciprofloxacin hydrochloride]: the “IC50 of cell viability” value is more than 46 µM.

Take `COc1cc(N)c(Cl)cc1C(=O)N[C@@H]1CCN(CCCOc2ccc(F)cc2)C[C@H]1OC` [Cisapride]: the “IC50 of cell viability” value was more than 46 µM.

Regarding `O=C(O)CC(O)(CC(=O)O)C(=O)O` [Citric acid], the “IC50 of cell viability” value was more than 46 µM. With `CN1C(=O)CN2CCc3ccccc3C2c2cc(Cl)ccc21` (stereo not drawn) [Clazolam], the “IC50 of cell viability” value is more than 46 µM. As to `COc1cc(N)c(Cl)cc1C(=O)NC1CCN(Cc2ccccc2)CC1` [Clebopride maleate], the “IC50 of cell viability” value is more than 46 µM.
